Experimental data from US11965006B2, “Antimicrobial and anti-cancer therapy” (UNIVERSITY OF PITTSBURGH—OF THE COMMONWEALTH SYSTEM OF …, priority 2016, dated 2024).
Ends that are not written are not given here.

B1: SPLUNC1-wt: wildtype version of SPLUNC1, a naturally secreted antimicrobial protein (protein, UniProt Q9NP55 20-256, looked up)
BPI fold-containing family A …: QFGGLPVPLDQTLPLNVNPALPLSPTGLAGSLTNALSNGLLSGGLLGILENLPLLDILKPGGGTSGGLLGGLLGKVTSVIPGLNNIIDIKVTDPQLLELGLVQSPDGHRLYVTIPLGIKLQVNTPLVGASLLRLAVKLDITAEILAVRDKQERIHLVLGDCTHSPGSLQISLLDGLGPLPIQGLLDSLTGILNKVLPELVQGNVCPLVNEVLRGLDITLVHDIVNMLIHGLQFVIKV

Columns and labels:
[1] = system: Enterococcus faecium MDR clinical isolates; assay type: cell-based; conditions: Table 3
Protocol: (§1) The bactericidal activities were examined using standard bacterial culture media (MHB) without the inclusion of human blood.
(§2) Tables 3 and 4 provide the MIC data for the tested AMPs against a variety of infectious species. The following strains were tested: Enterococcus faecium MDR clinical isolates Ef 25153 and Ef 26125; methicillin-resistant Staphylococcus aureus (MRSA) clinical isolates USA300 and 150-10; Klebsiella pneumonia MDR clinical isolates C3, C5, A5, D7 and E6; and Pseudomonas aeruginosa MDR clinical isolates PA 82-8 and PA 129-5. […] Table 5 provides the data for the D-amino acid substituted AMPs and their bactericidal activities against various Klebsiella pneumonia multi-drug resistant (MDR) clinical isolates. All odd number Kp bacteria (isolated prior to colistin treatment; colistin sensitive) are paired with the corresponding even number Kp bacteria (isolated after colistin treatment; colistin resistant) from the same patient. O.D. readings represent the bacterial growth with a background reading of about 0.049+/−0.003.

[2] = system: Klebsiella pneumonia MDR clinical isolates; assay type: cell-based; conditions: Table 3
Protocol: as §1, §2

[3] = system: Pseudomonas aeruginosa MDR clinical isolates; assay type: cell-based; conditions: Table 3
Protocol: as §1, §2

[4] = system: methicillin-resistant Staphylococcus aureus (MRSA) clinical isolates; assay type: cell-based; conditions: Table 3
Protocol: as §1, §2

[5] = In vivo toxicity / maximum tolerated dose; parameters: species or system Mice (strain: Swiss Webster)
Protocol: The modified AMPs show a lower toxicity and higher maximum tolerated dosage (MTD) than WLBU2 (SEQ ID No. 26). The MTD for WLBU2 (SEQ ID No. 26) is 15 mg/kg, for Colistin is 10 mg/kg, and SEQ ID No. 15 is 30 mg/kg (FIG. 14A).
Mice (strain: Swiss Webster) were injected with SEQ ID No. 15 peptides intravenously (i.v.) or intraperitoneally (i.p.) at the concentrations indicated. […] Thus, the estimated maximum tolerated dose (MTD) is around 40-50 mpk (i.v.). On a similar setting of testing other AMPS, the MTD for WLBU2 is 15 mpk (i.v.) and 10 mpk (i.v.) for colistin.

Hep2 epithelial cells = test: Hep2 cytopathology in RSV plaque assay; assay type: cell-based; conditions: 32 μM
Protocol: Using a standard plaque assay, RSV replication was quantified in permissive Hep2 epithelial cells in the presence or absence of various AMPs. RSV plaque assays were used to determine the minimum dose required to induce Hep2 cytopathology and maximum anti-viral effects. Experimental controls included Hep2 cells+/−RSV and Hep-2 cells with AMP only.
Hep2 control cells without the AMP were also plated. Both plates were infected with the same dilution of A2 RSV virus. There is extensive sloughing of cells treated with the peptide (top plate) as compared to cells which were not (bottom plate), FIG. 18.

[6] = system: primary Human bronchial epithelial (HBE) cells; test: Toxicity to primary cells, tetrazolium-based viability assay; assay type: cell-based; conditions: treated 2 h
Protocol: Anti-cancer activity of SEQ ID No. 26 and its D-amino acid modified enantiomer, SEQ ID. No. 34. SEQ ID. No. 34 was compared to SEQ ID No. 26 for selective anti-cancer activities using cancer cell lines of the respiratory system. See FIG. 22A for H460 (large cell lung cancer) and Calu-1 (non-small cell lung cancer) and FIG. 22B for primary Human bronchial epithelial (HBE) cells. The cells were grown to 80% confluence and then treated with each AMP for 2 h. Percent viability was examined using a tetrazolium-based assay assessing the mitochondrial integrity. […] No. 34; however SEQ ID. […] No. 34. Therefore, SEQ ID. […] No. 26.

S.A. ATCC49775 = test: Antimicrobial activity of SPLUNC1 proteins (FIG. 2A); assay type: cell-based; conditions: S.A. ATCC49775, FIG. 2A
From the text: (§3) The AMPs disclosed herein were derived from the naturally secreted antimicrobial protein SPLUNC1. […] FIG. 2C) illustrates the alpha helical structure of alpha4 (A4), the 30 residue sequence used as the template to design the disclosed AMPs listed in Table 2.

MRSA USA300 = test: Antimicrobial activity of SPLUNC1 proteins (FIG. 2B); assay type: cell-based; conditions: MRSA USA300, FIG. 2B
From the text: as §3

Molecule | MIC Ef 25153 ([1]; isolate Ef 25153) [µM] | MIC Ef 26125 ([1]; isolate Ef 26125) [µM] | MIC A5 ([2]; isolate A5) [µM] | MIC C3 ([2]; isolate C3) [µM] | MIC C5 ([2]; isolate C5) [µM] | MIC D7 ([2]; isolate D7) [µM] | MIC E6 ([2]; isolate E6) [µM] | MIC PA 82-8 ([3]; isolate PA 82-8) [µM] | MIC PA 129-5 ([3]; isolate PA 129-5) [µM] | MIC MRSA 150-10 ([4]; isolate 150-10) [µM] | MIC MRSA USA300 ([4]; isolate USA300) [µM] | MTD ([5]; Swiss Webster, mouse, in vivo, FIG. 14A, read-out: maximum tolerated dosage (MTD)) [mg/kg] | maximum tolerated dose (MTD) ([5]; i.v., Swiss Webster mice) [mpk] | cytopathology in Hep2 cells (Hep2 epithelial cells) | toxicity to primary HBE cells [6] | antimicrobial activity (S.A. ATCC49775) | antimicrobial activity (MRSA USA300)
RRWVRRVRRVWRRVVRVVRRWVRR [SEQ ID No. 26, reference compound] | <4 | <4 | >8 | 16 | 16 | <4 | <4 | 4 | <4 | 8 | <4 | 15 | 15 | caused cytopathology | toxic to primary HBE cells |  | 
B1 |  |  |  |  |  |  |  |  |  |  |  |  |  |  |  | significant antimicrobial activity | significant antimicrobial activity
